Results from US20230159931A1, “TARGETING THE PALMOTYLATION/DEPALMOTYLATION CYCLE TO TREAT INFLAMMATORY DISEASES” (CORNELL UNIVERSITY, priority 2020, published 2023).

Assays:
[1] = tested on: STAT3 target genes (RORC and CCND1); assay: Expression of STAT3 target genes under TH17 differentiation conditions (qPCR); assay type: cell-based; details: mouse spleen cells
Experimental: Splenocytes were isolated from mice by classic methods. In brief, the excised spleen was sliced into small pieces and placed onto a strainer (352350, Thermo Fisher) attached to a 50 ml conical tube. The sliced spleen was pressed through the strainer using the plunger end of a syringe and the cells were washed through the strainer with excess 4° C. PBS. The cell suspension was centrifuged at 500 g for 5 min at 4° C. The cell pellet was suspended in 2 ml of red blood cell lysing buffer (R7757, Sigma) for 5 min at RT and diluted with 30 ml PBS. The cells were centrifuged at 500 g for 5 min at RT. The cell pellet was suspended in 20 ml of 37° C. DMEM media, mixed well with 10 ml of Percoll density gradient media (17089102, VWR) and centrifuged at 2,500 g for 5 min at RT. The collected cells were seeded in 37° C. RPMI 1640 medium (12633012, Gibco) supplemented with 10% FBS at 5×10^6 cells per ml. Splenocytes were cultured under TH17-polarizing conditions: 3 ng ml^−1 TGF-β (100-21, PeproTech), 40 ng ml^−1 IL-6 (200-06, PeproTech), 30 ng ml^−1 IL-23 (200-23, PeproTech), 20 ng ml^−1 tumour necrosis factor (TNF) (300-01A, PeproTech) and 10 ng ml^−1 IL-1β (200-01B, PeproTech). […]
Because STAT3 is important for TH17 cell differentiation, the inventors evaluated whether the palmitoylation-depalmitoylation cycle of STAT3 promotes the generation of TH17 cells from mouse spleen cells. […]

[2] = tested on: DSS-induced colitis in mice; assay: DSS-induced mouse colitis model; assay type: in vivo
Experimental: FIGS. 4A-4I. The STAT3 palmitoylation-depalmitoylation cycle aggravates colitis. (A), (B) Human PBMCs from 26 healthy participants (Ctrl), 24 patients with Crohn's disease (CD; 7 remission stage (rem.) and 17 active stage (act.)) and 10 patients with ulcerative colitis (UC; 1 remission stage and 9 active stage) were extracted. LYPLA2 and ZDHHC7 mRNA levels were analysed using qPCR. The relative p-STAT3 levels were quantified by western blots. c, d, The correlations between IL17A (C) or p-STAT3 (D) and the mRNA levels of the indicated genes in 34 patients with IBD. (E), (F), C57BL/6J mice were treated with 2.5% DSS in drinking water ad libitum and ML349 was intraperitoneally injected daily on the day that DSS treatment started. Body weight changes (E) and TH17 cell levels in the spleen (F) were evaluated. (G), (H), Wild-type and DHHC7-knockout mice were treated with 2.5% DSS in drinking water ad libitum. Body weight changes (G) and TH17 cell levels in the spleen (H) were evaluated. (I), Model of the regulation of STAT3 by the palmitoylation-depalmitoylation cycle. Palmitoylation of STAT3 by DHHC7 promotes the membrane recruitment and phosphorylation of STAT3. APT2 promotes the nuclear translocation of p-STAT3 by selectively depalmitoylating p-STAT3 over STAT3. The palmitoylation-depalmitoylation cycle drives the membrane localization and phosphorylation of STAT3, and the nuclear translocation of p-STAT3. The direction of the cycle is ensured by the preference of APT2 for p-STAT3 over STAT3. Data are expressed as the mean±s.e.m. *P<0.05; **P<0.01.
The mouse protocol 2019-0009 was approved by the Institutional Animal Care and Use Committee (IACUC) at Cornell University. All animals were housed under specific-pathogen-free conditions following the regulations of the IACUC. Mice (6-8 weeks old) were randomized into different groups (8 mice per group, mixed sex) as indicated. Colitis was induced by treating with 3.0% DSS (MP Biomedicals) in their drinking water ad libitum. ML349 solution was intraperitoneally injected into the mice at the indicated doses every other day. All mice were euthanized and the spleens were isolated to detect T cells. The distance from caecum to anus was measured. The colon was fixed in 4% paraformaldehyde for pathological examination. The study was not blinded.
The inventors tested whether the pharmacological inhibition of APT2 with ML349 could reduce dextran sulfate sodium (DSS)-induced colitis in mice, an experimental model for IBD.

[3] = DSS treatment followed by ML349 treatment, intraperitoneal
[4] = pretreatment with ML349 followed by treatment with DSS

## COc1ccc(N2CCN(C(=O)c3cc4c(s3)-c3ccccc3S(=O)(=O)C4)CC2)cc1 [ML349]
[1]
  expression of STAT3 target genes (RORC and CCND1): significantly decreased
[2]; [3]
  colon shortening: significantly attenuated
  weight loss: significantly attenuated
[2]; DSS-treated mice, spleen
  levels of TH17 cells in mouse splenocytes: significantly decreased
[2]; [4]
  survival rate: increased the survival rate
  weight loss: significantly attenuated weight loss
